{"source": "patent US10449183B2", "about": "“Methods for inhibiting preterm labor and uterine contractility disorders and preventing cervical ripening” (DIGNITY HEALTH, priority 2010, dated 2019)", "key": {"[1]": {"tested_on": "pregnant rats", "assay": "Time of delivery of timed-pregnant rats (hours after 8 a.m. of day 22 of gestation)", "format": "in vivo, Sprague-Dawley rats", "from_the_text": "(§1) Nonpregnant and timed-pregnant Sprague-Dawley rats (200-250 g) from Charles-River Laboratories (Wilmington, Mass., USA) were delivered to animal care facilities on day 12 of gestation (day 1 being the day when a sperm plug was observed). The animals were housed separately, with free access to food and water and maintained on a constant 12-hour light-dark cycle. Control pregnant rats were spontaneously delivering on day 22 and 23 of gestation. For the measurements with the collascope the animals were anaesthetized (interperitoneal (i.p). injection) with a combination of xylazine (Gemini, Burns Veterinary Supply Inc, Rockville Center, N.Y., USA) and ketamine HCl (Ketaset; Fort Dodge Laboratories Inc, Fort Dodge, Iowa, USA). The animals were randomly allocated to one of the groups and sacrificed by carbon dioxide inhalation on day 3, 5, 7 and 10 postpartum or on day 25 of pregnancy in the groups with delayed delivery. All procedures were approved by the Animal Care and Use Committee of the St. Joseph's Hospital and Medical Center in Phoenix.\n(§2) Prior to any treatment LIF measurements were made in control rats throughout pregnancy and postpartum to estimate the LIF profile during gestation (see FIG. 1). Pregnant rats (N=6/group) were treated (see FIG. 2), when not otherwise mentioned (see FIG. 3), from day 13 of pregnancy until delivery. Single daily treatments were performed at 8 a.m. and twice a day treatments at 8 a.m. and 8 p.m. All single injections (4 mg P4, 10 mg 17P, 2 mg promegestone (R5020)) were by the subcutaneous route (s.c.) in sesame oil (0.2 ml), which was also used for the controls. Vaginal gels were applied twice a day with a blunt ball-top needle deep into the vagina. Crinone was used for the P4 vaginal group (equivalent volumes of Crinone were used for 2-15 mg P4/treatment), all data presented show the results of the highest dose (total daily dose of 30 mg P4=⅓ of a applicator of 8% Crinone that contains 90 mg P4). For the vaginal promegestone (R5020) group micronized promegestone (R5020) (1 mg/treatment) was mixed into 0.18 ml of Replens. The control rats for the vaginal groups were treated with Replens (0.18 ml/treatment). For oral P4 treatments (15 mg, bid, vehicle sesame oil or H2O, volume 1 ml) gavage was used. For topical P4 treatment (15 mg, bid, P4 in 1 ml sesame oil, fish oil or in Replens) the drug was applied on the back of animals that were shaved on day 13, 17 and 21. In some animals (N=6) RU-486 (3 mg in 0.2 ml sesame oil) was injected subcutaneously once on day 16 of gestation.\nTimes of delivery (see also FIG. 4) of controls and various treatment groups were determined as hours after 8 a.m. of day 22 of gestation (FIG. 5). The expulsion of one pup was defined as delivery.\nThe cervical LIFs obtained at different times of gestation (FIG. 1) were compared using one-way analysis of variance (ANOVA) and multiple pairwise comparison procedures (Holm-Sidak). Student's t-test was used to compare the LIF results of a treatment group to its specific control group at any time in gestation and postpartum and also to determine the differences in delivery times (FIGS. 2, 3 and 5). A two-tailed probability value of P<0.05 was considered statistically significant.\nFIG. 15 depicts delay of delivery times in timed pregnant rats treated with progesterone (P4) with different routes and vehicles. Treatment was started on day 13 of gestation and continued until delivery of pups or until delivery was blocked at […] (day 25) past day 22 of gestation. 8 am on day 22 is noted as hour 0 and delay is compared to control group treated only with vehicle. Treatment groups included: P4 in fish oil (vaginal, nasal, injection and topical groups), P4 in cocoa butter (rectal) and P4 in sesame oil (oral). All treatment groups received a total daily dose of 30 mg P4/day except the nasal and subcutaneous injection group which received 1 mg/day and 4 mg/day, respectively. […]"}, "[2]": {"tested_on": "cervix of pregnant rats", "assay": "Cervical ripening assessed in vivo by collagen light-induced fluorescence (LIF) with the collascope", "set-up": "species or system Sprague-Dawley rats", "from_the_text": "as §1, §2\nThe amount of cervical collagen was evaluated in vivo (only in group subcutaneously P4, vaginal P4, subcutaneously 17P, vaginal promegestone (R5020), subcutaneously RU-486) by measurement of the auto-fluorescent properties of cross-linked collagen with a new prototype of an instrument, termed collascope (Reproductive Research Technologies, Houston, Tex., USA), as used previously with an earlier prototype.\nAfter insertion of a small speculum into the vagina of the anesthetized animal, the optical probe of the collascope was placed on the surface of the exocervix. […] The exposure time for excitation was 100 msec. The average of 20 measurements of the detected fluorescent intensity (photon count) at 390 nm was used for each animal at any given time. Measurements of cervical light-induced fluorescence (LIF) were performed on nonpregnant animals once and in pregnant animals every other day starting at day 13 of gestation until delivery and on postpartum day 3 and/or postpartum day 5 (see FIGS. 2 and 3), and for some animals also on postpartum days 7 and 10 (see FIGS. 1 and 3).\nThe cervical LIFs obtained at different times of gestation (FIG. 1) were compared using one-way analysis of variance (ANOVA) and multiple pairwise comparison procedures (Holm-Sidak). […]"}, "[3]": {"settings": "s.c. injection daily in sesame oil from day 13 (P4 4 mg, 17P 10 mg, R5020 2 mg)"}, "[4]": {"settings": "RU-486 3 mg s.c. once on day 16"}}, "note": "“Also recorded” adds a separate entry of the source.", "data": [{"smiles": "CCCCCC(=O)O[C@]1(C(C)=O)CC[C@H]2[C@@H]3CCC4=CC(=O)CC[C@]4(C)[C@H]3CC[C@@]21C", "note": "[17P, 17-alpha-hydroxyprogesterone caproate]", "values": [{"measurement": "effect on delivery", "setting": "[1]; [3]", "value": "Delivery was not changed; also recorded: does not block delivery at all; also recorded: no significant effect on delaying term delivery"}, {"measurement": "cervical LIF / cervical ripening compared with vehicle controls", "setting": "[2]; 17P 10 mg s.c. daily from day 13", "value": "cervix is rigid; also recorded: significantly higher (P<0.05) in the 17P treated group (until day 19 only); also recorded: delayed cervical ripening but not at term immediately preceding delivery; also recorded: only attenuated until day 19 of gestation; also recorded: partly delays ripening; also recorded: not significantly different from controls at day 21; also recorded: significant differences are only observed until day 19 of gestation"}]}, {"smiles": "CC#C[C@]1(O)CC[C@H]2[C@@H]3CCC4=CC(=O)CCC4=C3[C@@H](c3ccc(N(C)C)cc3)C[C@@]21C", "note": "[RU-486, mifepristone]", "values": [{"measurement": "animals delivered after 24 hours", "setting": "[1]; [4]", "value": "4 of 6"}, {"measurement": "delivery of the remaining two animals after treatment", "setting": "[1]; [4]", "value": "≤ 48", "unit": "h"}, {"measurement": "time of induced preterm delivery after injection", "setting": "[1]; [4]", "value": "24 to 48", "unit": "h"}, {"measurement": "cervical ripening / softening", "setting": "[2]; [4]", "value": "softened the cervix during preterm delivery; also recorded: cervical ripening occurs after 24 hours followed by preterm delivery"}, {"measurement": "cervical LIF compared with vehicle controls", "setting": "[2]; RU-486 3 mg s.c. once on day 16, 24 and 72 hours after treatment", "value": "significantly lower (P<0.05)"}, {"measurement": "cervical LIF compared with vehicle controls", "setting": "[2]; RU-486 3 mg s.c. once on day 16, 5 days after treatment", "value": "higher"}]}, {"smiles": "CCC(=O)[C@@]1(C)CC[C@H]2[C@@H]3CCC4=CC(=O)CCC4=C3CC[C@@]21C", "note": "[promegestone (R5020), Promegestone]", "values": [{"measurement": "effect on delivery", "setting": "[1]; [3]", "value": "inhibits delivery; also recorded: completely block delivery; also recorded: prevented delivery; also recorded: completely inhibited"}, {"measurement": "effect on delivery", "setting": "[1]; vaginal bid from day 13 (P4 15 mg as Crinone; R5020 1 mg in Replens)", "value": "inhibits delivery; also recorded: completely blocked delivery; also recorded: prevented delivery; also recorded: completely inhibited; also recorded: delivery is blocked"}, {"measurement": "cervical LIF / cervical ripening compared with vehicle controls", "setting": "[2]; vaginal promegestone (R5020) 1 mg bid in Replens from day 13", "value": "cervix is rigid; also recorded: significantly higher (P<0.05) in the promegestone (R5020) treated group (until day 19 only); also recorded: delayed cervical ripening but not at term immediately preceding delivery; also recorded: only attenuated until day 19 of gestation; also recorded: not significantly different from controls; also recorded: significant differences are observed only until day 19"}]}]}
